Experiments:
BbDHFR-TS [1] = target: T1, BbDHFR-TS (Babesia bovis, UniProt A7ASX7); assay: X-ray crystal structures (co-purified 3k2h; cocrystallisation 3nrr); assay type: binding; conditions: DHFR site; with pemetrexed (3k2h) or raltitrexed (3nrr); oxidation state not stated beyond NADP
T1 construct: gene BBOV_II000780; full length 1-511, N-terminal 6xHis-Smt tag removed by Ulp1 without remnant, expressed in E. coli BL21 (DE3); DHFR about 1-186, 40-residue linker, TS C-terminal 285 residues
T1 sequence (A7ASX7 1-511): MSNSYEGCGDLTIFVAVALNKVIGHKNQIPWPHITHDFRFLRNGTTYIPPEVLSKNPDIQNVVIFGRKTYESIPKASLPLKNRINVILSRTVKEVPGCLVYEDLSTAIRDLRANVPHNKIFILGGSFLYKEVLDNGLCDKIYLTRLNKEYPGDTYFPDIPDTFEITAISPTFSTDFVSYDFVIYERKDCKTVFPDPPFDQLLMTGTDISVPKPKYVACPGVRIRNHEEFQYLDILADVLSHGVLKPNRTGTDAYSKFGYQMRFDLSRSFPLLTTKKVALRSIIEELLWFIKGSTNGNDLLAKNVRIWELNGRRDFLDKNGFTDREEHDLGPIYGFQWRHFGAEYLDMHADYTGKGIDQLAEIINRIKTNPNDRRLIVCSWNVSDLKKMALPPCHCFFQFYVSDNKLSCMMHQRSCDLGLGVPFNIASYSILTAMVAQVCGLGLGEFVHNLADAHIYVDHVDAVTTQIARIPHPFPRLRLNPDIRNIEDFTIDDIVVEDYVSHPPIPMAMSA

BbDHFR-TS [2] = target: T1, BbDHFR-TS; assay: X-ray crystal structure, […] Å, soak; assay type: binding; conditions: in both TS site (with dUMP) and DHFR site (with NADP); 2 mM pemetrexed, 2.0 mM dUMP; PEG 8000, CHES pH 9.5, 289 K
BbDHFR-TS [3] = target: T1, BbDHFR-TS; assay: X-ray crystal structure, […] Å, cocrystallisation; assay type: binding; conditions: in both TS site (with dUMP) and DHFR site (with NADP); 5 mM raltitrexed, 2 mM dUMP, 2 mM NADP; 20 mM MgCl2, HEPES pH 7.5, 289 K
BbDHFR-TS [4] = target: T1, BbDHFR-TS; assay: X-ray crystal structures (soak 3k2h; cocrystallisation 3nrr); assay type: binding; conditions: TS active site; ternary complex with pemetrexed (3k2h) or raltitrexed (3nrr)
[5] = target: dihydrofolate reductase-thymidylate synthase from B. bovis (Babesia bovis (Texas T2Bo isolate)); assay: crystal structure; three crystal structures of BbDHFR-TS (apo; with dUMP, NADP and pemetrexed; with dUMP, NADP and raltitrexed); space group P1, homodimer in the asymmetric unit; crystals grown at 289 K, data at 100 K

NC(=O)c1ccc[n+]([C@@H]2O[C@H](COP(=O)(O)OP(=O)(O)OC[C@H]3O[C@@H](n4cnc5c(N)ncnc54)[C@H](OP(=O)(O)O)[C@@H]3O)[C@@H](O)[C@H]2O)c1 [NADP]
X-ray crystal structures (co-purified 3k2h; cocrystallisation 3nrr) (BbDHFR-TS [1]): pemetrexed and NADP bound in the DHFR subunit

Nc1nc(=O)c2c(CCc3ccc(C(=O)N[C@@H](CCC(=O)O)C(=O)O)cc3)c[nH]c2[nH]1 [PTX, pemetrexed]
X-ray crystal structure, 2.2 Å, soak (BbDHFR-TS [2]): contains the antifolate pemetrexed and dUMP bound in the TS subunit and pemetrexed and NADP

Cc1nc2ccc(CN(C)c3ccc(C(=O)N[C@@H](CCC(=O)O)C(=O)O)s3)cc2c(=O)[nH]1 [RTX, raltitrexed]
X-ray crystal structure, 1.8 Å, cocrystallisation (BbDHFR-TS [3]): raltirexed rather than pemetrexed in both folate sites, as well as dUMP and NADP

O=c1ccn([C@H]2C[C@H](O)[C@@H](COP(=O)(O)O)O2)c(=O)[nH]1 [dUMP]
X-ray crystal structures (soak 3k2h; cocrystallisation 3nrr) (BbDHFR-TS [4]): contains the antifolate pemetrexed and dUMP bound in the TS subunit

dihydrofolate reductase-thymidylate synthase from B. bovis (enzyme)
stoichiometry N [5]: 2

From PMC3169404, “Inhibitor-bound complexes of dihydrofolate reductase-thymidylate synthase from Babesia bovis” (Acta Crystallographica Section F: Structural Biology and …, 2011)
